Numbered stars: 1 amine (or outer) side, 2 acyl side, 3 side chain; on linkers, the order of the positions; unused ones are H or OH. Square brackets hold non-standard residues; d marks the D form. Peptide text beside a SMILES is read from it. * marks the point of attachment. Propanoyl(3-(3,4-F2Ph)) = O=C(CCc1ccc(F)c(F)c1)*; Propanoyl(3-(4-F-phenyl)) = O=C(CCc1ccc(F)cc1)*; Trp(5-F) = N[C@@H](Cc1c[nH]c2ccc(F)cc12)C(=O)O; dTrp(5-F) = N[C@H](Cc1c[nH]c2ccc(F)cc12)C(=O)O; Hydrocinnamoyl(2,4-F2) = O=C(CCc1ccc(F)cc1F)*; Propanoyl(3-(4-Cl-Ph)) = O=C(CCc1ccc(Cl)cc1)*; dPhe(4-Cl) = N[C@H](Cc1ccc(Cl)cc1)C(=O)O; 1Nal = N[C@@H](Cc1cccc2ccccc12)C(=O)O; 2Nal = N[C@@H](Cc1ccc2ccccc2c1)C(=O)O; d1Nal = N[C@H](Cc1cccc2ccccc12)C(=O)O; NMeY = CN[C@@H](Cc1ccc(O)cc1)C(=O)O; Nicotinoyl = O=C(c1cccnc1)*; X3 = O=C(CCc1ccc2ccccc2c1)*; Morpholide = C1CN(*)CCO1; X4 = O=C(CCc1cccc(F)c1)*; CO = O=C([*:1])[*:2]
target: T1, LHRH receptors (Rattus norvegicus, UniProt P30969); assay: Receptor Binding (radioligand receptor binding assay); conditions: table 3; rat pituitary membranes, radioiodinated [D-Leu^6 -des Gly^10 ]-LHRH ethyl amide 50 pM, 2 hours at 4° C.; read-out: Receptor Binding pkI (converted)
T1 construct: Pituitary membranes containing LHRH receptors are prepared in batches from quick-frozen rat pituitaries; tissue Hilltop Labs; host or cells: rat pituitary membranes
T1 sequence (P30969 1-327): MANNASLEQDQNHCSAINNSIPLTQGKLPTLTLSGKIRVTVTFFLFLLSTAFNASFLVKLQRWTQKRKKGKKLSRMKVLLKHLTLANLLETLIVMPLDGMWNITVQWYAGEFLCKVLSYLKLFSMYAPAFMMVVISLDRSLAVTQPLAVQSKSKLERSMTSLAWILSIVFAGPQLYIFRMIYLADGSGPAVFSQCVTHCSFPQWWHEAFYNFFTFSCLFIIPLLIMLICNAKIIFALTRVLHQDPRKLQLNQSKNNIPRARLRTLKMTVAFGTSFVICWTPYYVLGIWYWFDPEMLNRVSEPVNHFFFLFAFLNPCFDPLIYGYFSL

Ki	SMILES
1.45 nM	CCNC(=O)[C@@H]1CCCN1C(=O)[C@H](CCCNC(=N)N)NC(=O)[C@H](CC(C)C)NC(=O)[C@@H](Cc1c[nH]c2ccccc12)NC(=O)[C@H](Cc1ccc(O)cc1)NC(=O)[C@H](CO)NC(=O)[C@H](Cc1c[nH]c2ccccc12)NC(=O)[C@H](Cc1ccccc1)NC(=O)CCc1ccc2ccccc2c1 [Compound 133, N-3-(2-Naphthyl)propionyl-Phe-Trp-Ser-Tyr-D-Trp-Leu-Arg -Pro-NHEt] (X3-FWSY[dW]LRP-NHEt)
0.398 nM	CCNC(=O)[C@@H]1CCCN1C(=O)[C@H](CCCNC(=N)N)NC(=O)[C@H](CC(C)C)NC(=O)[C@@H](Cc1c[nH]c2ccccc12)NC(=O)[C@H](Cc1ccc(O)cc1)NC(=O)[C@H](CO)NC(=O)[C@H](Cc1c[nH]c2ccccc12)NC(=O)[C@@H](Cc1ccccc1)NC(C)=O [Compound 134, N-Acetyl-D-Phe-Trp-Ser-Tyr-D-Trp-Leu-Arg-ProNHEt] (Ac-[dF]WSY[dW]LRP-NHEt)
0.263 nM	CCNC(=O)[C@@H]1CCCN1C(=O)[C@H](CCCNC(=N)N)NC(=O)[C@H](CC(C)C)NC(=O)[C@@H](Cc1c[nH]c2ccccc12)NC(=O)[C@H](Cc1ccc(O)cc1)NC(=O)[C@H](CO)NC(=O)[C@H](Cc1cccc2ccccc12)NC(=O)N1CCOCC1 [Compound 137, N-(N-alpha-Morpholinocarbonyl)-1-Nal-Ser-Tyr-D-Trp-Leu -Arg-ProNHEt] ({Morpholide-CO}-[1Nal]SY[dW]LRP-NHEt)
1 nM	CCNC(=O)[C@@H]1CCCN1C(=O)[C@H](CCCNC(=N)N)NC(=O)[C@H](CC(C)C)NC(=O)[C@@H](Cc1c[nH]c2ccccc12)NC(=O)[C@H](Cc1ccc(O)cc1)NC(=O)[C@H](CO)NC(=O)[C@H](Cc1ccc2ccccc2c1)NC(=O)N1CCOCC1 [Compound 138, N-(N-alpha-morpholinocarbonyl) -2-Nal-Ser-Tyr-D-Trp-Leu-Arg-ProNHEt] ({Morpholide-CO}-[2Nal]SY[dW]LRP-NHEt)

same assay, conditions: table 4; rat pituitary membranes, radioligand 50 pM, 2 hours at 4° C.; read-out: Receptor Binding pkI (converted)

Ki	SMILES
0.0891 nM	CCNC(=O)[C@@H]1CCCN1C(=O)[C@H](CCCNC(=N)N)NC(=O)[C@H](CC(C)C)NC(=O)[C@@H](Cc1c[nH]c2ccccc12)NC(=O)[C@H](Cc1ccc(O)cc1)NC(=O)[C@H](CO)NC(=O)[C@@H](Cc1ccc(Cl)cc1)NC(=O)CCc1ccc(F)cc1 [Compound 140, (3-9) [N-(3-(4-Fluorophenyl)propionyl) -D-4-Cl-Phe^3 -D-Trp^6 -Pro^9 NHEt]LHRH] ({Propanoyl(3-(4-F-phenyl))}-[dPhe(4-Cl)]SY[dW]LRP-NHEt)
0.0257 nM	CCNC(=O)[C@@H]1CCCN1C(=O)[C@H](CCCN=C(N)N)NC(=O)[C@H](CC(C)C)NC(=O)[C@@H](Cc1c[nH]c2ccccc12)NC(=O)[C@H](Cc1ccc(O)cc1)NC(=O)[C@H](CO)NC(=O)[C@@H](Cc1ccc(O)cc1)NC(=O)CCc1ccc(F)cc1 [Compound 141, (3-9)[N-(3-(4-Fluorophenyl)propionyl) -D-Tyr^3 -D-Trp^6 -Pro^9 NHEt]LHRH] ({Propanoyl(3-(4-F-phenyl))}-[dY]SY[dW]LRP-NHEt)
0.0724 nM	CCNC(=O)[C@@H]1CCCN1C(=O)[C@H](CCCNC(=N)N)NC(=O)[C@H](CC(C)C)NC(=O)[C@@H](Cc1c[nH]c2ccccc12)NC(=O)[C@H](Cc1ccc(O)cc1)NC(=O)[C@H](CO)NC(=O)[C@H](Cc1c[nH]c2ccc(F)cc12)NC(=O)CCc1ccc(F)cc1 [Compound 142, (3-9)[N-(3-(4-Fluorophenyl)propionyl) -5-F-Trp^3 -D-Trp^6 -Pro^9 NHEt]LHRH] ({Propanoyl(3-(4-F-phenyl))}-[Trp(5-F)]SY[dW]LRP-NHEt)
0.049 nM	CCNC(=O)[C@@H]1CCCN1C(=O)[C@H](CCCNC(=N)N)NC(=O)[C@H](CC(C)C)NC(=O)[C@@H](Cc1c[nH]c2ccccc12)NC(=O)[C@H](Cc1ccc(O)cc1)NC(=O)[C@H](CO)NC(=O)[C@@H](Cc1c[nH]c2ccc(F)cc12)NC(=O)CCc1ccc(F)cc1 [Compound 143, (3-9)[N-(3-(4-Fluorophenyl)propionyl)-D -5-F-Trp^3 -D-Trp^6 -Pro^9 NHEt]LHRH] ({Propanoyl(3-(4-F-phenyl))}-[dTrp(5-F)]SY[dW]LRP-NHEt)
0.0257 nM	CCNC(=O)[C@@H]1CCCN1C(=O)[C@H](CCCN=C(N)N)NC(=O)[C@H](CC(C)C)NC(=O)[C@@H](Cc1c[nH]c2ccccc12)NC(=O)[C@H](Cc1ccc(O)cc1)NC(=O)[C@H](CO)NC(=O)[C@H](Cc1cccc2ccccc12)NC(=O)CCc1ccc(F)cc1 [Compound 144, (3-9)[N-(3-(4-Fluorophenyl)propionyl) -1-Nal^3 -D-Trp^6 -Pro^9 NHEt]LHRH] ({Propanoyl(3-(4-F-phenyl))}-[1Nal]SY[dW]LRP-NHEt)
0.0251 nM	CCNC(=O)[C@@H]1CCCN1C(=O)[C@H](CCCN=C(N)N)NC(=O)[C@H](CC(C)C)NC(=O)[C@@H](Cc1c[nH]c2ccccc12)NC(=O)[C@H](Cc1ccc(O)cc1)NC(=O)[C@H](CO)NC(=O)[C@@H](Cc1cccc2ccccc12)NC(=O)CCc1ccc(F)cc1 [Compound 145, (3-9)[N-(3-(4-Fluorophenyl)propionyl) -D-1-Nal^3 -D-Trp^6 -Pro^9 NHEt]LHRH] ({Propanoyl(3-(4-F-phenyl))}-[d1Nal]SY[dW]LRP-NHEt)
0.02 nM	CCNC(=O)[C@@H]1CCCN1C(=O)[C@H](CCCN=C(N)N)NC(=O)[C@H](CC(C)C)NC(=O)[C@@H](Cc1c[nH]c2ccccc12)NC(=O)[C@H](Cc1ccc(O)cc1)NC(=O)[C@H](CO)NC(=O)[C@H]1CCCN1C(=O)CCc1ccc(F)cc1 [Compound 147, (3-9)[N-(3-(4-Fluorophenyl)propionyl) -D-Pro^3 -D-Trp^6 -Pro^9 NHEt]LHRH] ({Propanoyl(3-(4-F-phenyl))}-[dP]SY[dW]LRP-NHEt)
0.055 nM	CCNC(=O)[C@@H]1CCCN1C(=O)[C@H](CCCNC(=N)N)NC(=O)[C@H](CC(C)C)NC(=O)[C@@H](Cc1c[nH]c2ccccc12)NC(=O)[C@H](Cc1ccc(O)cc1)NC(=O)[C@H](CO)NC(=O)[C@@H]1CCCN1C(=O)CCc1ccc(F)cc1 [Compound 148, (3-9)[N-(3-(4-Fluorophenyl)propionyl) -Pro^3 -D-Trp^6 -Pro^9 NHEt]LHRH] ({Propanoyl(3-(4-F-phenyl))}-PSY[dW]LRP-NHEt)
0.0295 nM	CCNC(=O)[C@@H]1CCCN1C(=O)[C@H](CCCNC(=N)N)NC(=O)[C@H](CC(C)C)NC(=O)[C@@H](Cc1ccc(Cl)cc1)NC(=O)[C@H](Cc1ccc(O)cc1)NC(=O)[C@H](CO)NC(=O)[C@@H](Cc1c[nH]c2ccccc12)NC(=O)CCc1ccc(F)cc1 [Compound 149, (3-9)[N-(3-(4-Fluorophenyl)propionyl) -D-Trp3-D-4-Cl-Phe^6 -Pro^9 NHEt]LHRH] ({Propanoyl(3-(4-F-phenyl))}-[dW]SY[dPhe(4-Cl)]LRP-NHEt)
0.0102 nM	CCNC(=O)[C@@H]1CCCN1C(=O)[C@H](CCCN=C(N)N)NC(=O)[C@H](CC(C)C)NC(=O)[C@@H](Cc1ccc(O)cc1)NC(=O)[C@H](Cc1ccc(O)cc1)NC(=O)[C@H](CO)NC(=O)[C@@H](Cc1c[nH]c2ccccc12)NC(=O)CCc1ccc(F)cc1 [Compound 150, (3-9)[N-(3-(4-Fluorophenyl)propionyl) -D-Trp^3 -D-Tyr^6 -Pro^9 NHEt]LHRH] ({Propanoyl(3-(4-F-phenyl))}-[dW]SY[dY]LRP-NHEt)
0.0282 nM	CCNC(=O)[C@@H]1CCCN1C(=O)[C@H](CCCN=C(N)N)NC(=O)[C@H](CC(C)C)NC(=O)[C@@H](Cc1c[nH]c2ccccc12)NC(=O)[C@H](Cc1ccc(O)cc1)NC(=O)[C@H](CO)NC(=O)[C@@H](Cc1c[nH]c2ccccc12)NC(=O)CCc1ccc(F)c(F)c1 [Compound 151, (3-9)[N-(3-(3,4-diFluorophenyl)propionyl) -D-Trp^3,6 -Pro^9 NHEt]LHRH] ({Propanoyl(3-(3,4-F2Ph))}-[dW]SY[dW]LRP-NHEt)
0.0214 nM	CCNC(=O)[C@@H]1CCCN1C(=O)[C@H](CCCN=C(N)N)NC(=O)[C@H](CC(C)C)NC(=O)[C@@H](CCCCNC(=O)c1cccnc1)NC(=O)[C@H](Cc1ccc(O)cc1)N(C)C(=O)[C@H](CO)NC(=O)[C@@H](Cc1c[nH]c2ccccc12)NC(=O)CCc1ccc(F)cc1F [Compound 152, (3-9)[N-(3-(2,4-diFluorophenyl)propionyl) -D-Trp^3 -NMeTyr^5 -D-Lys^6 (N-epsilon-nicotinyl)-Pro^9 NHEt]LHRH] ({Hydrocinnamoyl(2,4-F2)}-[dW]S[NMeY][dK](Nicotinoyl)LRP-NHEt)
0.024 nM	CCNC(=O)[C@@H]1CCCN1C(=O)[C@H](CCCN=C(N)N)NC(=O)[C@H](CC(C)C)NC(=O)[C@@H](CCCCNC(=O)c1cccnc1)NC(=O)[C@H](Cc1ccc(O)cc1)N(C)C(=O)[C@H](CO)NC(=O)[C@@H](Cc1c[nH]c2ccccc12)NC(=O)CCc1cccc(F)c1 [Compound 153, (3-9)[N-(3-(3-Fluorophenyl)propionyl) -D-Trp^3 -NMeTyr^5 -D-Lys^6 (N-epsilon-nicotinyl)-Pro ^9 NHEt]LHRH] (X4-[dW]S[NMeY][dK](Nicotinoyl)LRP-NHEt)
0.0316 nM	CCNC(=O)[C@@H]1CCCN1C(=O)[C@H](CCCN=C(N)N)NC(=O)[C@H](CC(C)C)NC(=O)[C@@H](CCCCNC(=O)c1cccnc1)NC(=O)[C@H](Cc1ccc(O)cc1)N(C)C(=O)[C@H](CO)NC(=O)[C@@H](Cc1c[nH]c2ccccc12)NC(=O)CCc1ccc(Cl)cc1 [Compound 154, (3-9)[N-(3-(4-Chlorophenyl)propionyl) -D-Trp^3 -NMeTyr^5 -DLys^6 (N-epsilon-nicotinyl)-Pro ^9 NHEt]LHRH] ({Propanoyl(3-(4-Cl-Ph))}-[dW]S[NMeY][dK](Nicotinoyl)LRP-NHEt)
